Several values for one entry are separate records, joined by “and”; a condition that tells them apart may be missing. Equal entries are not always repeated.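 Results reflect a 48-hour exposure of cells in 96-well plates to compound at five concentrations. At the GI50, growth is halved. TGI denotes the concentration required for complete inhibition of growth.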
Each molecule was assayed on BT-549 breast (assay: growth of human tumour cells (NCI), 48 h).

Compound	GI50	TGI [µM]
O=C1CCCN1c1ccccc1I(=O)=O	> 100 µM	> 100
COC(=O)C1=COC(C)C2CN3CCc4c([nH]c5ccccc45)C3CC12 (centres undefined)	28 µM and > 100 µM	> 100
O=C(NCc1ccc(Cn2c(=O)sn(-c3ccccc3)c2=O)cc1)OCc1ccc2cccc(O)c2n1	0.732 µM	2.3
COC(c1ccc(C(C)(C)C)cc1)(c1ccc(C(C)(C)C)cc1)c1ccc(C(C)(C)C)cc1		> 100
CC(C)c1[nH]nc2c1N=C(c1ccccc1Cl)c1cc([N+](=O)[O-])ccc1N2	6.66 µM	> 22.1
Nc1cc2c(cc1Br)[nH]c(=O)c1ccccc12	12.3 µM	31.4
COc1ccc(-c2nccn2-c2ccc(OC)cc2)cc1	28.7 µM	> 94.5
O=C(/C=C/c1ccccc1)c1ccccc1		> 10
COc1cc2c(/C=N\N=C(N)N)c[nH]c2cc1C	15.3 µM	28.5
CC(C)[C@H](O)C(=O)N[C@@H](C)C(=O)N[C@@H]1C(=O)N(C)CCc2ccccc21	> 100 µM	> 100
C=CC(=O)N1CN(C(=O)C=C)CN(C(=O)C=C)C1	6.68 µM	20.7
ClC(Cl)=C1C(=C(Cl)Cl)C(Cl)(Cl)C1(Cl)Cl		13.4
C#CCOc1cccc(Nc2ncnc3c(NC(=O)C=C)cccc23)c1	13.9 µM	89.9
CO[C@H]1Nc2c(ccc(C)c2O)C(=O)N2C=C(/C=C/C(N)=O)C[C@@H]12		< 0.0479
O=C(/C(=C\c1c(-c2ccccc2)[nH]c2ccccc12)S(=O)(=O)c1ccccc1)c1ccccc1	> 100 µM	> 100
CCNC(=O)/C(=C/c1ccc(OC)cc1)c1cc(OC)c(OC)c(OC)c1		> 100
Cc1ccc(OCCOCCOCCOCCOc2ccc(C)n(O)c2=S)c(=S)n1O	0.52 µM	> 100
COc1ccc(-c2ccc3c(N4CCOC[C@@H]4C)nc(N4CCOC[C@@H]4C)nc3n2)cc1CO	0.00348 µM and 0.0162 µM	
N[C@H](CCC(=O)N[C@@H](Cc1c[nH]c2ccccc12)C(=O)O)C(=O)O	> 100 µM	> 100
COc1ccc(-c2nc(-c3cc(OC)cc(OC)c3)[nH]c2-c2ccc(OC)cc2)cc1	8.56 µM	> 100
CN(C)CCNCCN		> 100
COC(=O)c1cc2c(o1)-c1nccc3c1c(nc1ccccc13)C2=O	4.05 µM	18.2
Nc1ccccc1O.O.O=C(O)C1[O][Sb][O]C1C(=O)O (centres undefined)	14.9 µM	30.6
O=C(c1ccco1)c1c(C(F)(F)F)n([O-])c2ccc(C(F)(F)F)cc2[n+]1=O	0.177 µM	0.339
OC(c1cc(-c2ccc(C(F)(F)F)cc2)nc(C(F)(F)F)c1)C1CCCCN1 (centres undefined)	1.7 µM	3.08
CCCCCCCCCCNC(=O)CI	1.73 µM	3.35
CCc1ccc2c(c1)C(=O)c1c-2n(CCCN=[N+]=[N-])c(=O)c2cc([N+](=O)[O-])ccc12	> 50 µM	> 50
Cc1cc(N/N=C/c2ccccn2)nc2ccccc12	0.85 µM	20.3
CC1CC(O)C(=O)C(O[C@@H]2C[C@@H]3CC[C@@H]4[C@H](CC[C@]5(C)C(C6=CC(=O)OC6)CC[C@]45O)[C@@]3(C=O)C[C@H]2O)O1 (some centres undefined)		0.126

The molecules below were run on SNB-75 CNS (assay: growth of human tumour cells (NCI), 48 h).

Compound	GI50 [µM]	TGI [µM]
O=C1CCCN1c1ccccc1I(=O)=O	> 100	> 100
O=C(NCc1ccc(Cn2c(=O)sn(-c3ccccc3)c2=O)cc1)OCc1ccc2cccc(O)c2n1	0.783	2.08
COC(c1ccc(C(C)(C)C)cc1)(c1ccc(C(C)(C)C)cc1)c1ccc(C(C)(C)C)cc1		> 100
CC(C)c1[nH]nc2c1N=C(c1ccccc1Cl)c1cc([N+](=O)[O-])ccc1N2	1.31	> 17.6
Nc1cc2c(cc1Br)[nH]c(=O)c1ccccc12	2.66	11.9
